Results taken from patent US11572362B2, “Pyrrolo[1,2-b]pyridazine derivatives” (Gilead Sciences, Inc., priority 2018, dated 2023).

How the values were obtained:
IRAK4 = IRAK4 (Homo sapiens (Human), UniProt Q9NWZ3); assay: IRAK4 Biochemical Assay (TR-FRET/HTRF); details: IRAK4 enzyme 0.75 nM, 500 μM ATP, 2 μM STK1 peptide, 120 min
Summary of the method: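 Recombinant IRAK4 (0.75 nM) with 2 µM STK1 peptide and 500 µM ATP in pH 7.0 HEPES/Mg buffer; compound preincubated 15 min with enzyme and peptide, then 120 min reaction at room temperature. HTRF readout: cryptate anti-phospho-peptide antibody, 665/615 nm ratio; % inhibition against no-inhibitor and saturating-staurosporine controls.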

TNFα = assay: IRAK4 Monocyte TNFα Cell Based Assay; details: Monocyte; cryopreserved human monocytes, 50 pg/ml LPS, compound 1 hour pre-treatment, 4 hours stimulation, TNFα by TR-FRET
Summary of the method: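 Monocytes at 5,000 cells/well were pre-treated with compound for 1 h at 37 °C (0.1% DMSO final), then stimulated with 50 pg/ml LPS for 4 h. Secreted TNFα in supernatant was measured by TR-FRET (665/615 ratio), expressed as % control relative to unstimulated and stimulated cells.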

Chain of IRAK4 (Q9NWZ3 whole entry): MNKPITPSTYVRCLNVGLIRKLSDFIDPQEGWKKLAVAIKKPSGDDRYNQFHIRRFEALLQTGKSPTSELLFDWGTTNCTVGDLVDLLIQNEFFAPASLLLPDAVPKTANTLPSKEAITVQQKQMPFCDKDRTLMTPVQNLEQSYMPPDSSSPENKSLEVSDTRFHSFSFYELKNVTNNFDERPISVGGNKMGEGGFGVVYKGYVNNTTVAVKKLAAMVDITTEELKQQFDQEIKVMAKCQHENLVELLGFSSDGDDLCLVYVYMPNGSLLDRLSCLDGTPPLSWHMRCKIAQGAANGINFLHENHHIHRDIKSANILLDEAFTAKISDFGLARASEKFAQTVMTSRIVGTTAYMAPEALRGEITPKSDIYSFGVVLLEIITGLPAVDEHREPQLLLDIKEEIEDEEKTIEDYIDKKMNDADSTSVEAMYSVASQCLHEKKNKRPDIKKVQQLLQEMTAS

Compound	IC50 (IRAK4) [nM]	EC50 (TNFα) [nM]
CC(C)(O)[C@H](F)CNC(=O)c1cnc(-c2ccc3cc(C#N)cnn23)cc1N[C@H]1CC[C@H](c2ncn(C(F)F)n2)CC1 [Compound 22, 6-(3-cyanopyrrolo[1,2-b]pyridazin-7-yl)-4-(((1r,4R)-4-(1-(difluoromethyl)-1H-1,2,4-triazol-3-yl)cyclohexyl)amino)-N-((R)-2-fluoro-3-hydroxy-3-methylbutyl)nicotinamide]	2	67
Cn1cc([C@H]2CC[C@H](Nc3cc(-c4ccc5cc(C#N)cnn45)ncc3C(=O)NC[C@@H](F)C(C)(C)O)CC2)cn1 [Compound 7, 6-(3-cyanopyrrolo[1,2-b]pyridazin-7-yl)-N-((R)-2-fluoro-3-hydroxy-3-methylbutyl)-4-(((1r,4R)-4-(1-methyl-1H-pyrazol-4-yl)cyclohexyl)amino)nicotinamide]	1	18
Cn1nnnc1[C@H]1CC[C@H](Nc2cc(-c3ccc4cc(C#N)cnn34)ncc2C(=O)NC[C@@H](F)C(C)(C)O)CC1 [Compound 16, 6-(3-cyanopyrrolo[1,2-b]pyridazin-7-yl)-N-((R)-2-fluoro-3-hydroxy-3-methylbutyl)-4-(((1r,4R)-4-(1-methyl-1H-tetrazol-5-yl)cyclohexyl)amino)nicotinamide]	< 1	26
CC(C)(O)[C@H](F)CNC(=O)c1cnc(-c2ccc3cc(C#N)cnn23)cc1N[C@H]1CC[C@H](n2cc(C(N)=O)nn2)CC1 [Compound 34, 4-(((1r,4R)-4-(4-carbamoyl-1H-1,2,3-triazol-1-yl)cyclohexyl)amino)-6-(3-cyanopyrrolo[1,2-b]pyridazin-7-yl)-N-((R)-2-fluoro-3-hydroxy-3-methylbutyl)nicotinamide]	< 1	43
CC(C)(O)[C@H](F)CNC(=O)c1cnc(-c2ccc3cc(C#N)cnn23)cc1N[C@H]1CC[C@H](n2cc(F)cn2)CC1 [Compound 25, 6-(3-cyanopyrrolo[1,2-b]pyridazin-7-yl)-4-(((1r,4R)-4-(4-fluoro-1H-pyrazol-1-yl)cyclohexyl)amino)-N-((R)-2-fluoro-3-hydroxy-3-methylbutyl)nicotinamide]	2	29
CC(C)(O)[C@H](F)CNC(=O)c1cnc(-c2ccc3cc(C#N)cnn23)cc1N[C@H]1CC[C@H](n2ccc(C(F)F)n2)CC1 [Compound 23, 6-(3-cyanopyrrolo[1,2-b]pyridazin-7-yl)-4-(((1r,4R)-4-(3-(difluoromethyl)-1H-pyrazol-1-yl)cyclohexyl)amino)-N-((R)-2-fluoro-3-hydroxy-3-methylbutyl)nicotinamide]	1	38
CC(C)(O)[C@H](F)CNC(=O)c1cnc(-c2ccc3cc(C#N)cnn23)cc1N[C@H]1CC[C@H](c2cnn(C(F)(F)F)c2)CC1 [Compound 4, 6-(3-cyanopyrrolo[1,2-b]pyridazin-7-yl)-N-((R)-2-fluoro-3-hydroxy-3-methylbutyl)-4-(((1r,4R)-4-(1-(trifluoromethyl)-1H-pyrazol-4-yl)cyclohexyl)amino)nicotinamide]	3	37
Cc1nn(C(F)F)cc1C1CCC(Nc2cc(-c3ccc4cc(C#N)cnn34)ncc2C(=O)NC[C@@H](F)C(C)(C)O)CC1 (stereo partly drawn) [Compound 9, (R)-6-(3-cyanopyrrolo[1,2-b]pyridazin-7-yl)-4-((4-(1-(difluoromethyl)-3-methyl-1H-pyrazol-4-yl)cyclohexyl)amino)-N-(2-fluoro-3-hydroxy-3-methylbutyl)nicotinamide]	7	114
CC(C)(O)[C@H](F)CNC(=O)c1cnc(-c2ccc3cc(C#N)cnn23)cc1N[C@H]1CC[C@H](c2cnn(CC3CC3)c2)CC1 [Compound 13, 6-(3-cyanopyrrolo[1,2-b]pyridazin-7-yl)-4-(((1r,4R)-4-(1-(cyclopropylmethyl)-1H-pyrazol-4-yl)cyclohexyl)amino)-N-((R)-2-fluoro-3-hydroxy-3-methylbutyl)nicotinamide]	2	169
CC(C)(O)[C@H](F)CNC(=O)c1cnc(-c2ccc3cc(C#N)cnn23)cc1N[C@H]1CC[C@H](n2nc(C(F)F)cc2C(F)F)CC1 [Compound 29, 4-(((1r,4R)-4-(3,5-bis(difluoromethyl)-1H-pyrazol-1-yl)cyclohexyl)amino)-6-(3-cyanopyrrolo[1,2-b]pyridazin-7-yl)-N-((R)-2-fluoro-3-hydroxy-3-methylbutyl)nicotinamide]	7	381
CC(C)(O)[C@H](F)CNC(=O)c1cnc(-c2ccc3cc(C#N)cnn23)cc1N[C@H]1CC[C@@H](c2cn[nH]c2)CC1 [Compound 2, 4-(((1s,4S)-4-(1H-pyrazol-4-yl)cyclohexyl)amino)-6-(3-cyanopyrrolo[1,2-b]pyridazin-7-yl)-N-((R)-2-fluoro-3-hydroxy-3-methylbutyl)nicotinamide]	< 1	66

Further lines, results first:

IC50 (IRAK4) [nM]	EC50 (TNFα) [nM]	Compound
< 1	39	CC(C)(O)[C@H](F)CNC(=O)c1cnc(-c2ccc3cc(C#N)cnn23)cc1N[C@@H]1CC[C@@H](c2nnc(C(F)F)o2)OC1 [Compound 63, 6-(3-cyanopyrrolo[1,2-b]pyridazin-7-yl)-4-(((3R,6S)-6-(5-(difluoromethyl)-1,3,4-oxadiazol-2-yl)tetrahydro-2H-pyran-3-yl)amino)-N-((R)-2-fluoro-3-hydroxy-3-methylbutyl)nicotinamide]
2	11	CC(C)(O)[C@H](F)CNC(=O)c1cnc(-c2ccc3cc(C#N)cnn23)cc1N[C@H]1CC[C@H](c2cncnc2)CC1 [Compound 57, 6-(3-cyanopyrrolo[1,2-b]pyridazin-7-yl)-N-((R)-2-fluoro-3-hydroxy-3-methylbutyl)-4-(((1r,4R)-4-(pyrimidin-5-yl)cyclohexyl)amino)nicotinamide]
< 1	38	CC(C)(O)[C@H](F)CNC(=O)c1cnc(-c2ccc3cc(C#N)cnn23)cc1N[C@H]1CC[C@H](c2nnc(C3CC3)o2)CC1 [Compound 41, 6-(3-cyanopyrrolo[1,2-b]pyridazin-7-yl)-4-(((1r,4R)-4-(5-cyclopropyl-1,3,4-oxadiazol-2-yl)cyclohexyl)amino)-N-((R)-2-fluoro-3-hydroxy-3-methylbutyl)nicotinamide]
1	41	CC(C)(O)[C@H](F)CNC(=O)c1cnc(-c2ccc3cc(C#N)cnn23)cc1N[C@H]1CC[C@H](C2CCOCC2)CC1 [Compound 67, 6-(3-cyanopyrrolo[1,2-b]pyridazin-7-yl)-N-((R)-2-fluoro-3-hydroxy-3-methylbutyl)-4-(((1r,4R)-4-(tetrahydro-2H-pyran-4-yl)cyclohexyl)amino)nicotinamide]
2	124	CC(C)(O)[C@H](F)CNC(=O)c1cnc(-c2ccc3cc(C#N)cnn23)cc1N[C@H]1CC[C@H](c2nc(C(F)F)co2)CC1 [Compound 46, 6-(3-cyanopyrrolo[1,2-b]pyridazin-7-yl)-4-(((1r,4R)-4-(4-(difluoromethyl)oxazol-2-yl)cyclohexyl)amino)-N-((R)-2-fluoro-3-hydroxy-3-methylbutyl)nicotinamide]
0.868	71.4	CC(C)(O)[C@H](F)CNC(=O)c1cnc(-c2ccc3cc(C#N)cnn23)cc1N[C@H]1CC[C@H](c2nnc(C(F)F)o2)OC1 [Compound 74, 6-(3-cyanopyrrolo[1,2-b]pyridazin-7-yl)-4-(((3S,6R)-6-(5-(difluoromethyl)-1,3,4-oxadiazol-2-yl)tetrahydro-2H-pyran-3-yl)amino)-N-((R)-2-fluoro-3-hydroxy-3-methylbutyl)nicotinamide]
< 1	33	Cc1nnc([C@H]2CC[C@H](Nc3cc(-c4ccc5cc(C#N)cnn45)ncc3C(=O)NC[C@@H](F)C(C)(C)O)CC2)o1 [Compound 39, 6-(3-cyanopyrrolo[1,2-b]pyridazin-7-yl)-N-((R)-2-fluoro-3-hydroxy-3-methylbutyl)-4-(((1r,4R)-4-(5-methyl-1,3,4-oxadiazol-2-yl)cyclohexyl)amino)nicotinamide]
1	52	Cc1ncc([C@H]2CC[C@H](Nc3cc(-c4ccc5cc(C#N)cnn45)ncc3C(=O)NC[C@@H](F)C(C)(C)O)CC2)s1 [Compound 50, 6-(3-cyanopyrrolo[1,2-b]pyridazin-7-yl)-N-((R)-2-fluoro-3-hydroxy-3-methylbutyl)-4-(((1r,4R)-4-(2-methylthiazol-5-yl)cyclohexyl)amino)nicotinamide]
< 1	25	CC(C)(O)[C@H](F)CNC(=O)c1cnc(-c2ccc3cc(C#N)cnn23)cc1N[C@H]1CC[C@H](c2cccnc2)CC1 [Compound 55, 6-(3-cyanopyrrolo[1,2-b]pyridazin-7-yl)-N-((R)-2-fluoro-3-hydroxy-3-methylbutyl)-4-(((1r,4R)-4-(pyridin-3-yl)cyclohexyl)amino)nicotinamide]
< 1	14	CC(C)(O)[C@H](F)CNC(=O)c1cnc(-c2ccc3cc(C#N)cnn23)cc1N[C@H]1CC[C@H](n2cnc(C(F)F)n2)CC1 [Compound 36, 6-(3-cyanopyrrolo[1,2-b]pyridazin-7-yl)-4-(((1r,4R)-4-(3-(difluoromethyl)-1H-1,2,4-triazol-1-yl)cyclohexyl)amino)-N-((R)-2-fluoro-3-hydroxy-3-methylbutyl)nicotinamide]
< 1	24	CC(C)(O)[C@H](F)CNC(=O)c1cnc(-c2ccc3cc(C#N)cnn23)cc1N[C@H]1CC[C@H](c2nnc(C(F)F)o2)CC1 [Compound 42, 6-(3-cyanopyrrolo[1,2-b]pyridazin-7-yl)-4-(((1r,4R)-4-(5-(difluoromethyl)-1,3,4-oxadiazol-2-yl)cyclohexyl)amino)-N-((R)-2-fluoro-3-hydroxy-3-methylbutyl)nicotinamide]
